What was measured:
Format in all cases: in vivo
[1] = system: Green Soldier Stink Bug (Nezara viridula); test: Green soldier stink bug (Nezara viridula) test B.8; details: in Glycine max, 120 h, read-out: mortality in comparison with untreated controls
Experimental: (§1) The active compound was dissolved at the desired concentration in a mixture of 1:1 (vol:vol) distilled water: acetone. Surfactant (Kinetic® HV) was added at a rate of 0.01% (vol/vol). The test solution was prepared at the day of use.
Soybean pods were placed in 90×50 mm glass Petri dishes lined with moist filter paper and inoculated with ten late 3rd instar N. viridula. Using a hand atomizer, an approximately 2 ml solution was sprayed into each Petri dish. Treated cups were kept at about 25-26° C. and relative humidity of about 65-70%. Percent mortality was recorded after 5 days.

[2] = system: Rice green leafhopper (Nephotettix virescens); test: Rice green leafhopper (Nephotettix virescens) spray test B.12; details: for Activity in %: comparative experiment, 10 ppm
Experimental: (§2) Four to five-week old rice seedlings with cut upper leaf portion were cleaned and washed 24 hours before spraying. The active compounds were formulated in 1:1 acetone:water (vol:vol), and 0.01% vol/vol surfactant (Kinetic® HV) was added. Potted rice seedlings were sprayed with 5-6 ml test solution, air dried, covered with Mylar cages and inoculated with 10 adults. Treated rice plants were kept at about 28-29° C. and relative humidity of about 50-60%. Percent mortality was recorded after 72 hours.
(§3) The compound of example I-1 was compared with the compound of example I.B-4 of WO 2015/040116 having an unsubstituted pyrimidin-5-yl ring instead of the present 2-chloropyrimidin-5-yl ring with respect to the insecticidal activity. The assays were carried out as described above for the respective pest (the cotton aphid assay according to B.3).

[3] = system: Cotton aphid (Aphis gossypii); test: Cotton aphid (Aphis gossypii) foliar spray test B.3; details: for Activity in %: comparative experiment, 300 ppm, assay according to B.3
Experimental: (§4) The active compounds were formulated by a Tecan liquid handler in 100% cyclohexanone as a 10,000 ppm solution supplied in tubes. The 10,000 ppm solution was serially diluted in 100% cyclohexanone to make interim solutions. These served as stock solutions for which final dilutions were made by the Tecan in 50% acetone:50% water (v/v) into 10 or 20 ml glass vials. A nonionic surfactant (Kinetic®) was included in the solution at a volume of 0.01% (v/v). The vials were then inserted into an automated electrostatic sprayer equipped with an atomizing nozzle for application to plants/insects.
Cotton plants at the cotyledon stage were infested with aphids prior to treatment by placing a heavily infested leaf from the main aphid colony on top of each cotyledon. Aphids were allowed to transfer overnight to accomplish an infestation of 80-100 aphids per plant and the host leaf was removed. The infested plants were then sprayed by an automated electrostatic plant sprayer equipped with an atomizing spray nozzle. The plants were dried in the sprayer fume hood, removed from the sprayer, and then maintained in a growth room under fluorescent lighting in a 24-hr photoperiod at 25° C. and 20-40% relative humidity. Aphid mortality on the treated plants, relative to mortality on untreated control plants, was determined after 5 days.
as §3

[4] = system: Green Peach Aphid (Myzus persicae); test: Green peach aphid (Myzus persicae) foliar spray test B.7; details: for Activity in %: comparative experiment, 300 ppm
Experimental: as §4
Bell pepper plants at the first true-leaf stage were infested prior to treatment by placing heavily infested leaves from the main colony on top of the treatment plants. Aphids were allowed to transfer overnight to accomplish an infestation of 30-50 aphids per plant and the host leaves were removed. The infested plants were then sprayed by an automated electrostatic plant sprayer equipped with an atomizing spray nozzle. The plants were dried in the sprayer fume hood, removed, and then maintained in a growth room under fluorescent lighting in a 24 h photoperiod at about 25° C. and about 20-40% relative humidity. Aphid mortality on the treated plants, relative to mortality on untreated control plants, was determined after 5 days.
as §3

[5] = system: Southern armyworm (Spodoptera eridania); test: Southern armyworm (Spodoptera eridania) foliar spray test B.15; details: for Activity in %: comparative experiment, 300 ppm
Experimental: as §4
Lima bean plants (variety Sieva) were grown 2 plants to a pot and selected for treatment at the 1st true leaf stage. Test solutions were sprayed onto the foliage by an automated electrostatic plant sprayer equipped with an atomizing spray nozzle. The plants were dried in the sprayer fume hood and then removed from the sprayer. Each pot was placed into perforated plastic bags with a zip closure. About 10 to 11 armyworm larvae were placed into the bag and the bags zipped closed. Test plants were maintained in a growth room at about 25° C. and about 20-40% relative humidity for 4 days, avoiding direct exposure to fluorescent light (24 hour photoperiod) to prevent trapping of heat inside the bags. Mortality and reduced feeding were assessed 4 days after treatment, compared to untreated control plants.
as §3

[6] = system: Orchid thrips (Dichromothrips corbetti); test: Orchid thrips (Dichromothrips corbetti) floral immersion test B.10; details: for Activity in %: comparative experiment, 10 ppm
Experimental: Dichromothrips corbetti adults used for bioassay were obtained from a colony maintained continuously under laboratory conditions. For testing purposes, the test compound was diluted in a 1:1 mixture of acetone:water (vol:vol), plus Kinetic® HV at a rate of 0.01% v/v.
Thrips potency of each compound was evaluated by using a floral immersion technique. All petals of individual, intact orchid flowers were dipped into treatment solution and allowed to dry in Petri dishes. Treated petals were placed into individual re-sealable plastic along with about 20 adult thrips. All test arenas were held under continuous light and a temperature of about 28° C. for duration of the assay. After 3 days, the numbers of live thrips were counted on each petal. The percent mortality was recorded 72 hours after treatment.
as §3

[7] = system: Vetch aphid (Megoura viciae); test: Vetch aphid (Megoura viciae) leaf disk test B.19; details: foliar, 120 h, read-out: mortality in comparison with untreated controls
Experimental: For evaluating control of vetch aphid (Megoura viciae) through contact or systemic means the test unit consisted of 24-well-microtiter plates containing broad bean leaf disks.
The compounds were formulated using a solution containing 75% v/v water and 25% v/v DMSO. Different concentrations of formulated compounds were sprayed onto the leaf disks at 2.5 μl, using a custom built micro atomizer, at two replications.
After application, the leaf disks were air-dried and 5-8 adult aphids placed on the leaf disks inside the microtiter plate wells. The aphids were then allowed to suck on the treated leaf disks and incubated at about 23±1° C. and about 50±5% relative humidity for 5 days. Aphid mortality and fecundity was then visually assessed.

[8] = system: Cowpea aphid (Aphis craccivora); test: Cowpea aphid (Aphis craccivora) spray test B.5; details: for Activity in %: comparative experiment, 100 ppm
Experimental: as §1
Potted cowpea plants were colonized with approximately 30-50 aphids of various stages by manually transferring a leaf tissue cut from infested plant 24 hours before application. Plants were sprayed with the test solutions using a DeVilbiss® hand atomizer at 20-30 psi (≈1.38 to 2.07 bar) after the pest population has been checked. Treated plants were maintained on light carts at about 25-26° C. Percent mortality was assessed after 72 hours.
as §3

[9] = system: Rice brown plant hopper (Nilaparvata lugens); test: Rice brown plant hopper (Nilaparvata lugens) spray test B.13; details: 72 h, read-out: mortality in comparison with untreated controls
Experimental: as §2, with “seedlings” for “seedlings with cut upper leaf portion”, “(vol:vol)” for “(vol:vol),”

[10] = system: Diamond back moth (Plutella xylostella); test: Diamond back moth (Plutella xylostella) leaf dip test B.6; details: 300 ppm; cabbage leaf dip; 72 hours after treatment
Experimental: as §1
Leaves of cabbage were dipped in test solution and air-dried. Treated leaves were placed in petri dishes lined with moist filter paper and inoculated with ten 3rd instar larvae. Mortality was recorded 72 hours after treatment. Feeding damages were also recorded using a scale of 0-100%.

SMILES	mortality at 300 ppm [1]	mortality at 300 ppm ([2]; Nephotettix virescens, 72 h, read-out: mortality in comparison with untreated controls)	Activity in % [2]	mortality at 300 ppm ([3]; Aphis gossypii, foliar, 120 h, read-out: mortality in comparison with untreated controls)	Activity in % [3]	mortality at 2500 ppm ([4]; Myzus persicae, foliar, 120 h, read-out: mortality in comparison with untreated controls)	Activity in % [4]	mortality at 300 ppm ([5]; Spodoptera eridania, in Phaseolus lunatus, foliar, 96 h, read-out: mortality in comparison with untreated controls)	Activity in % [5]	mortality at 300 ppm ([6]; Thrips, 72 h, read-out: mortality in comparison with untreated controls)	Activity in % [6]	mortality at 2500 ppm [7]	mortality at 300 ppm ([8]; Aphis craccivora, 72 h, read-out: mortality in comparison with untreated controls)	Activity in % [8]	mortality at 300 ppm [9]	mortality in comparison with untreated controls [10]
N#CC1(C(=O)N=c2ccccn2Cc2cnc(Cl)nc2)CC1 [I-1, N-[1-[(2-chloropyrimidin-5-yl)methyl]-2-pyridylidene]-1-cyano-cyclopropanecarboxamide]	> 75%	> 75%	90%	> 75%	90%	> 75%	100%	> 75%	100%	> 75%	100%	> 75%	> 75%	50%	> 75%	–
CON=CC(=O)N=c1ccccn1Cc1cnc(Cl)nc1 [I-2]	–	–	–	–	–	–	–	–	–	–	–	–	–	–	–	over 75%
N#CC1(C(=O)N=c2ccccn2Cc2cncnc2)CC1 [I.B-4, reference compound]	–	–	50%	–	0%	–	50%	–	0%	–	0%	–	–	0%	–	–

— US11142514B2, “Imino compounds with a 2-chloropyrimidin-5-yl substituent as pest-control agents” (BASF SE, priority 2015, dated 2021)
